The target of this test is T1, Delta-Opioid Receptor (Mus musculus, UniProt P32300).
T1 construct: host or cells: NG108-15
Description: Delta-opioid receptor binding: inhibition of specific binding of 3H NID to intact NG108-15 cells. Conditions: for EC50: EC50 (M), competition with 3H NID, intact NG108-15 cells, 2 hr at 37° C. As for the experimental part: To do so, 1 to 4 serial dilutions of test compounds and naltrindole (NID, Sigma) are prepared to generate solutions with concentrations ranging from 10^−3 to 10^−14 M in 50 mM Tris buffer, pH 7.5. ^3H NID (American Radiolabeled Chemicals, St. Louis, Mo., specific activity 49 dpm/10^−15 mol) is prepared in Tris at a concentration of 10^−9 M. Cultured cells of the neruablastoma/glioblastoma hybrid cell line NG108-15 (American Type Culture Collection) are briefly trypsinized, washed with media, and resuspended at 6×10^5 cells/mL. 20 μL of test compound or NID solution and 20 μL of ^3H NID are added to each of 96 wells of a Multiscreen assay system (Millipore) MAFB. 160 μL of cell suspension in Dulbecco's MEM+HAT with 10% Fetal Bovine Serum are added. The reactions are allowed to equilibrate 2 hr at 37° C., vacuum filtered, washed 2× with 200 μL ice cold Tris buffer and air dried. The filters are punched out of the plate into scintillation vials and mixed on a shaker overnight before counting.
Data is analyzed by the Prism software package (GraphPad Software, Inc., San Diego, Calif.) using a non-linear curve fit routine for one site competitive binding.

Molecules are shown by their SMILES. Several values for one entry are separate records, joined by “and”; a condition that tells them apart may be missing. Equal values may be shown once.

The values that follow come from patent publication US6359111B1, “Opioid receptor targeting” (NeoRx Corporation, priority 1998, dated 2002).

T1 sequence (P32300 whole entry): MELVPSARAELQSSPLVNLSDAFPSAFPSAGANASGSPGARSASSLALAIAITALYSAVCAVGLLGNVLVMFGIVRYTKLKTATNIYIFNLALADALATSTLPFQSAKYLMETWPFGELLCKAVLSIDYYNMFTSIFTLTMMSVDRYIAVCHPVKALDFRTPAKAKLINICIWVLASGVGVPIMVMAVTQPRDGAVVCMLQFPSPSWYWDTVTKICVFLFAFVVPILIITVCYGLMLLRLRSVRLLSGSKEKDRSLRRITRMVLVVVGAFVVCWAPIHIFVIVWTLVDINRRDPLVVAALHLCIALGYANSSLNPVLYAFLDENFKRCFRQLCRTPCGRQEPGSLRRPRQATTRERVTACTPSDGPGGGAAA

One may read the EC50 as the concentration that produces a half-maximal response. Low values mean an effect from little substance, high ones a need for much substance. With `Oc1ccc2c3c1O[C@H]1c4[nH]c5ccccc5c4C[C@@]4(O)[C@@H](C2)N(CC2CC2)CC[C@]314` [NID, naltrindole, reference compound], the 50% effective concentration (EC50) was 4.2e-09 M and 1.8e-09 M.

`O=C(O)CN1CCN(CC(=O)O)CCN(CC(=O)O)C(Cc2ccc(NC(=O)CCCCCNC(=O)Cn3c4c(c5ccccc53)CC3(O)C5Cc6ccc(O)c7c6C3(CCN5CC3CC3)C4O7)cc2)CN(CC(=O)O)CC1` (stereo not shown) [NID-DOTA] gave a concentration giving a half-maximal response (EC50) of 1.2e-08 M. Further, for the setting “ratio of EC50 of test compound to EC50 of NID in the same test”, the Test/Control worked out at 2.8. Also, the “fold lower in affinity than NID” value (summary of Table 1) is given as “about 3 fold”.
